Experiments:
[1] = system: H2O2-stimulated PC 12 cell lines; test: Protection against H2O2-induced oxidative damage (CCK-8); type: cell-based, rat; details: for viability at 5 µM / viability at 10 µM / viability at 20 µM: Rattus norvegicus; for viability at 5 µM: PC-12, Dose 5 μM; for viability at 5 µM / viability at 10 µM / viability at 20 µM / Cell viability: H2O2-induced oxidative damage, PC 12, H2O2 group 49.69 ± 1.37, control 100; for viability at 10 µM: PC-12, Dose 10 μM; for viability at 20 µM: PC-12, Dose 20 μM; for Cell viability: in % (unit assumed)
Protocol: PC 12 cells were seeded in 96-well plates at a density of 8000 cells/well and incubated overnight. […] After incubating under the same conditions for 24 h, 10 μL CCK-8 solution was added to each well. After 2 h incubation, the absorbance of each well was measured at 450 nm using a microplated reader (Multiskan MK-3, Thermo, Waltham, MA, USA).

[2] = system: PC 12 cell lines; test: Radiation protection in vitro (CCK-8); type: cell-based, rat; details: for Cell viability / viability at 5 µM / viability at 10 µM / viability at 20 µM: radiation 8.0 Gy, PC 12, radiation group 50.22 ± 1.08; for Cell viability: in % (unit assumed); for viability at 5 µM / viability at 10 µM / viability at 20 µM: Rattus norvegicus; for viability at 5 µM: PC-12, Dose 5 μM; for viability at 10 µM: PC-12, Dose 10 μM; for viability at 20 µM: PC-12, Dose 20 μM; for radiation protection capability compared with curcumin / radiation protection capacity: 10 μM; for radiation protection capability compared with curcumin: irradiated PC 12; for radiation protection capacity: versus radiation group
Protocol: The rat adrenal pheochromocytoma cells (PC 12) were used for in vitro studies. A Cell Counting Kit-8 (CCK-8, Applygen Technologies Co., Ltd., Beijing, China) assay was used to determine cell viability. […] Cells were irradiated with dose of 8.0 Gy at a dose rate of 0.8 Gy/min. Then, 10 μL CCK-8 solution was added to all the wells. After 4 h incubation, the absorbance at 450 nm of each well was measured in a multiscan photometer.

[3] = system: LPS-stimulated RAW264.7 cell lines; test: LPS-induced NO production (Griess) in RAW264.7; type: cell-based, murine; details: for The production of NO / inhibition at 10 µM: LPS-stimulated RAW264.7; for The production of NO: LPS group 49.86 ± 0.62, control 1.20 ± 0.38; for inhibition at 10 µM: Mus musculus, read-out: inhibition rate (anti-inflammatory activity); for inhibitory activity against NO production compared with curcumin: 10 μM
Protocol: RAW 264.7 cells were plated in 96-well plates at a density of 1 × 10^4 cells/well and incubated overnight at 37 °C under 5% CO2. […] Dexamethasone (Solarbio, D8040, Beijing, China) was used as the positive control. Then, 24 h later, NO production was determined by measuring the nitrite content using Griess reagents. Fifty microliters of culture supernatants were transferred to 96-well plates and mixed with 50 μL Griess reagent A. After incubation at room temperature for 5 min, the samples were mixed with an equal volume Griess reagent B for another 5 min. The absorbance of each mixture at 540 nm was measured using a microplate reader.

SMILES	viability at 5 µM [1] [%]	viability at 10 µM [1] [%]	viability at 20 µM [1] [%]	Cell viability ([2]; Dose 5 μM)	Cell viability ([2]; Dose 10 μM)	Cell viability ([2]; Dose 20 μM)	The production of NO ([3]; Dose 5 μM)	The production of NO ([3]; Dose 10 μM)	The production of NO ([3]; Dose 15 μM)	inhibition at 10 µM [3] [%]	Cell viability ([1]; Dose 5 μM)	Cell viability ([1]; Dose 10 μM)	Cell viability ([1]; Dose 20 μM)	viability at 5 µM [2] [%]	viability at 10 µM [2] [%]	viability at 20 µM [2] [%]	inhibitory activity against NO production compared with curcumin [3]	anti-oxidant capacity compared with curcumin ([1]; 10 μM, H2O2-stimulated PC 12)	radiation protection capability compared with curcumin [2]	radiation protection capacity [2]
COc1cc(O)ccc1/C=C/C(=O)CC(=O)/C=C/c1cc(CN(C)C)c(O)c(OC)c1 [Compound 9]	53.22 ± 0.26	58.53 ± 0.46	66.1 ± 1.09	56.32 ± 1.77	59.94 ± 1.26	65.00 ± 1.84	42.38 ± 2.73	29.76 ± 1.48	19.69 ± 0.78	41	–	–	–	–	–	–	–	–	–	–
COc1cc(/C=C/C(=O)CC(=O)/C=C/c2cc(OC)c(O)c(OC)c2)cc(CN(C)C)c1O [Compound 2]	55.7 ± 0.79	58.2 ± 0.8	63.4 ± 1.13	50.96 ± 1.31	52.89 ± 2.05	54.68 ± 1.78	43.78 ± 1.52	42.04 ± 1.70	36.99 ± 1.85	–	–	–	–	–	–	–	–	–	–	–
COc1cc(/C=C/C(=O)CC(=O)/C=C/c2ccc(O)cc2)cc(CN(C)C)c1O [Compound 10]	–	–	–	–	–	–	36.66 ± 2.00	15.36 ± 2.09	4.91 ± 0.77	71	53.53 ± 2.28	58.20 ± 1.24	77.80 ± 2.65	58.4 ± 1.95	63.9 ± 2.22	79.3 ± 3.13	better inhibitory activity	–	–	–
COc1cc(/C=C/C(=O)CC(=O)/C=C/c2ccc(O)c(Cl)c2)cc(CN(C)C)c1O [Compound 7]	54.4 ± 1.18	61.9 ± 1.29	78.2 ± 1.43	61.54 ± 2.47	63.26 ± 3.00	69.98 ± 4.31	35.15 ± 2.72	18.46 ± 2.34	10.47 ± 1.32	–	–	–	–	–	–	–	–	–	–	–
COc1cc(/C=C/C(=O)CC(=O)/C=C/c2cc(CN(C)C)c(O)c(OC)c2)ccc1O [Compound 15]	–	–	–	–	–	–	41.85 ± 1.07	28.31 ± 0.33	14.00 ± 0.92	44	60.18 ± 1.41	71.98 ± 3.71	87.82 ± 1.77	58.6 ± 0.61	63.45 ± 0.21	77 ± 1.23	–	no statistical difference	no statistical difference	–
COc1cc(/C=C/C(=O)CC(=O)/C=C/c2ccc(OC)c(OC)c2OC)cc(CN(C)C)c1O [Compound 6]	56.6 ± 1.66	67.8 ± 1.91	94.89 ± 0.58	58.25 ± 1.05	62.18 ± 1.03	83.08 ± 6.65	27.16 ± 2.73	14.67 ± 3.66	5.95 ± 0.13	–	–	–	–	–	–	–	better inhibitory activity	–	better radiation protection capability	a certain degree of radiation protection capacity
COc1cc(/C=C/C(=O)CC(=O)/C=C/c2cc(C)c(O)c(C)c2)cc(CN(C)C)c1O [Compound 8]	64.6 ± 1.64	67.8 ± 2.26	81.7 ± 3.21	53.58 ± 0.78	55.23 ± 1.26	78.50 ± 2.59	42.90 ± 0.85	20.21 ± 1.82	5.46 ± 0.34	–	–	–	–	–	–	–	–	–	–	a certain degree of radiation protection capacity
COc1cc(/C=C/C(=O)CC(=O)/C=C/c2ccc(O)cc2C)cc(CN(C)C)c1O [Compound 3]	64.7 ± 2.69	71.7 ± 3.77	81.7 ± 2.41	49.57 ± 2.70	51.85 ± 2.04	57.44 ± 1.80	39.26 ± 2.12	30.62 ± 1.71	10.36 ± 3.69	–	–	–	–	–	–	–	–	–	–	–
COc1cc(/C=C/C(=O)CC(=O)/C=C/c2c(OC)cc(O)cc2OC)cc(CN(C)C)c1O [Compound 14]	–	–	–	–	–	–	27.84 ± 1.41	22.09 ± 0.55	9.39 ± 0.34	–	59.32 ± 2.89	65.73 ± 2.40	74.30 ± 1.25	53.08 ± 0.34	54.4 ± 0.72	63.5 ± 1.49	–	–	–	–
COc1cc(/C=C/C(=O)CC(=O)/C=C/c2ccc(O)cc2F)cc(CN(C)C)c1O [Compound 4]	61.7 ± 2.59	71 ± 2.33	84.7 ± 2.76	49.46 ± 1.97	51.75 ± 0.40	59.56 ± 0.59	40.64 ± 1.28	29.91 ± 1.78	10.48 ± 0.47	–	–	–	–	–	–	–	–	–	–	–
COc1cc(/C=C/C(=O)CC(=O)/C=C/c2c(C)cc(O)cc2C)cc(CN(C)C)c1O [Compound 13]	–	–	–	–	–	–	26.57 ± 1.74	21.53 ± 0.35	10.02 ± 0.61	–	62.94 ± 0.50	69.55 ± 1.06	80.61 ± 0.83	61.4 ± 1.58	67.8 ± 2.32	87.38 ± 0.6	–	–	–	–
COc1cc(/C=C/C(=O)CC(=O)/C=C/c2cc(C)c(O)cc2C)cc(CN(C)C)c1O [Compound 12]	–	–	–	–	–	–	32.06 ± 0.58	15.78 ± 0.50	11.39 ± 1.00	–	60.69 ± 1.53	70.31 ± 1.65	79.23 ± 1.18	56.6 ± 1.03	63.1 ± 1.52	76.8 ± 1.27	better inhibitory activity	–	–	a certain degree of radiation protection capacity

Source: PMC11085442 (Molecules, 2024)
